Results taken from paper PMC10418599, “Quercetins, Chlorogenic Acids and Their Colon Metabolites Inhibit Colon Cancer Cell Proliferation at Physiologically Relevant Concentrations” (International Journal of Molecular Sciences, 2023).

Tested on: SW480 cell line
Assay: Cell metabolism of phenolic compounds (UHPLC-HR-MS analysis of cell media)
Format: in vitro ADME, Human
Protocol: To analyze the metabolism of phenolic compounds by Caco-2 and SW480 cells, the cell culture media were withdrawn after 0, 24, 48 and 72 h of incubation. Phenolic compounds were extracted from the culture media by following the procedure reported in Sala et al.. Briefly, 100 μL of cold methanol was mixed with 100 μL of cell media and vortexed for 1 min. The mixture was then centrifuged at 10,000× g (4 °C, 5 min) and the supernatant was injected, after appropriate dilution, in an ultra-high-performance liquid chromatography high-resolution mass spectrometry system (UHPLC-HR-MS).
The HR-MS system consisted of a UHPLC Ultimate 3000 separation module, equipped with a C18 column (Acquity UPLC HSS C18 reversed phase, 2.1 × 100 mm, 1.8 μm particle size, Waters, Milan, Italy) and coupled with a Q Exactive Hybrid Quadrupole-Orbitrap Mass Spectrometer (Thermo Scientific, San Jose, CA, USA). Mobile phases consisted of a mixture of water containing formic acid (0.1%) (mobile phase A) and acetonitrile containing formic acid (0.1%) (mobile phase B). The gradient began at 1% B, reaching 40% B over 20 min. To wash the column, the mobile phase B concentration was raised to 99% over 6 min and kept at 99% for 3 min before returning to the initial conditions. The MS and MS/MS conditions are fully described in Martini et al..
Quantification was carried out by building external calibration curves with the available standard compounds.

[1] = SW480, 24 h, substrate 3,5-di-O-Caffeoylquinic acid 50 μmol/L
[2] = SW480, 48 h, substrate 3,5-di-O-Caffeoylquinic acid 50 μmol/L
[3] = SW480, 72 h, substrate 3,5-di-O-Caffeoylquinic acid 50 μmol/L
[4] = SW480, 24 h, substrate 3-O-Caffeoylquinic acid trans 50 μmol/L
[5] = SW480, 24 h, substrate 5-O-Caffeoylquinic acid trans 50 μmol/L
[6] = SW480, 48 h, substrate 5-O-Caffeoylquinic acid trans 50 μmol/L
[7] = SW480, 72 h, substrate 3-O-Caffeoylquinic acid trans 50 μmol/L
[8] = SW480, 72 h, substrate 5-O-Caffeoylquinic acid trans 50 μmol/L
[9] = SW480, 48 h, substrate 3-O-Caffeoylquinic acid trans 50 μmol/L
[10] = SW480, 24 h, substrate Quercetin 50 μmol/L
[11] = SW480, 48 h, substrate Quercetin 50 μmol/L
[12] = SW480, 48 h, substrate Quercetin-3-O-glucoside-4′-O-glucoside 50 μmol/L
[13] = SW480, 48 h, substrate Quercetin-4′-O-glucoside 50 μmol/L
[14] = SW480, 72 h, substrate Quercetin 50 μmol/L
[15] = SW480, 72 h, substrate Quercetin-3-O-glucoside-4′-O-glucoside 50 μmol/L
[16] = SW480, 72 h, substrate Quercetin-4′-O-glucoside 50 μmol/L

Row | SMILES | Concentration of newly formed metabolite [1] [nM] | Concentration of newly formed metabolite [2] [nM] | Concentration of newly formed metabolite [3] [nM] | Concentration of newly formed metabolite [4] [nM] | Concentration of newly formed metabolite [5] [nM] | Concentration of newly formed metabolite [6] [nM] | Concentration of newly formed metabolite [7] [nM] | Concentration of newly formed metabolite [8] [nM] | Concentration of newly formed metabolite [9] [nM] | also measured
1 | O=C(/C=C/c1ccc(O)c(O)c1)OC1CC(OC(=O)/C=C/c2ccc(O)c(O)c2)(C(=O)O)CC(O)C1O (stereo not drawn) [1,3-di-O-Caffeoylquinic acid] | 8970 ± 40 | 8870 ± 50 | 10980 ± 20 | – | – | – | – | – | – | –
2 | O=C(/C=C/c1ccc(O)c(O)c1)OC1C(O)CC(OC(=O)/C=C/c2ccc(O)c(O)c2)(C(=O)O)CC1O (stereo not drawn) [1,4-di-O-Caffeoylquinic acid] | 910 ± 30 | 660 ± 30 | 550 ± 10 | – | – | – | – | – | – | –
3 | O=C(/C=C/c1ccc(O)c(O)c1)OC1CC(O)(C(=O)O)CC(O)C1OC(=O)/C=C/c1ccc(O)c(O)c1 (stereo not drawn) [3,4-di-O-Caffeoylquinic acid] | 10120 ± 100 | 8040 ± 140 | 9050 ± 150 | – | – | – | – | – | – | –
4 | O=C(/C=C/c1ccc(O)c(O)c1)O[C@@H]1C[C@](O)(C(=O)O)C[C@@H](O)[C@H]1O [3-O-Caffeoylquinic acid cis, 3-O-Caffeoylquinic acid] | – | – | – | 4720 ± 40 | 410 ± 50 | 360 ± 40 | 3270 ± 170 | 720 ± 30 | – | –
5 | COc1cc(/C=C/C(=O)OC2CC(O)(C(=O)O)CC(O)C2O)ccc1O (stereo not drawn) [3-O-Feruloylquinic acid] | – | – | – | 80 ± 0 | 60 ± 0 | 70 ± 0 | 170 ± 0 | 50 ± 0 | 120 ± 0 | –
6 | O=C(/C=C/c1ccc(O)c(O)c1)O[C@@H]1[C@H](O)C[C@@](O)(C(=O)O)C[C@H]1OC(=O)/C=C/c1ccc(O)c(O)c1 [4,5-di-O-Caffeoylquinic acid] | 3300 ± 50 | 2200 ± 20 | 1710 ± 30 | – | – | – | – | – | – | –
7 | O=C(/C=C/c1ccc(O)c(O)c1)OC1[C@H](O)CC(O)(C(=O)O)C[C@H]1O (stereo partly drawn) [4-O-Caffeoylquinic acid trans, 4-O-Caffeoylquinic acid] | 70 ± 10 | 120 ± 10 | 250 ± 10 | 6890 ± 60 | 12690 ± 120 | 14800 ± 90 | 12020 ± 240 | 11930 ± 30 | 8070 ± 240 | –
8 | COc1cc(/C=C/C(=O)OC2C(O)CC(O)(C(=O)O)CC2O)ccc1O (stereo not drawn) [4-O-Feruloylquinic acid] | – | – | – | 20 ± 0 | 40 ± 0 | 50 ± 0 | 70 ± 0 | 40 ± 0 | 40 ± 0 | –
9 | COc1ccc(-c2oc3cc(O)cc(O)c3c(=O)c2O)cc1O [4′-O-methylquercetin] | – | – | – | – | – | – | – | – | – | Concentration of newly formed metabolite [10]: 970 ± 40 nM; Concentration of newly formed metabolite [11]: 1650 ± 40 nM; Concentration of newly formed metabolite [12]: 10 ± 0 nM; Concentration of newly formed metabolite [13]: 490 ± 10 nM; Concentration of newly formed metabolite [14]: 1830 ± 250 nM; Concentration of newly formed metabolite [15]: 10 ± 0 nM; Concentration of newly formed metabolite [16]: 710 ± 40 nM
10 | O=C(/C=C/c1ccc(O)c(O)c1)O[C@@H]1C[C@](O)(C(=O)O)C[C@@H](O)[C@H]1O [5-O-Caffeoylquinic acid cis, 5-O-Caffeoylquinic acid] | – | – | – | – | – | 970 ± 50 | – | 1420 ± 10 | – | –
11 | COc1cc(/C=C/C(=O)O[C@@H]2C[C@@](O)(C(=O)O)C[C@@H](O)[C@@H]2O)ccc1O [5-O-Feruloylquinic acid] | – | – | – | 30 ± 0 | 10 ± 0 | 30 ± 0 | 50 ± 0 | 30 ± 0 | 30 ± 0 | –
12 | O=C(O)/C=C/c1ccc(O)c(O)c1 [Caffeic acid] | – | – | 1070 ± 10 | 440 ± 10 | – | 80 ± 0 | 570 ± 10 | 90 ± 10 | 430 ± 10 | –
13 | COc1cc(/C=C/C(=O)O)ccc1O [Ferulic acid] | – | – | – | – | 60 ± 20 | 330 ± 10 | – | 370 ± 10 | – | –
14 | COc1cc(-c2oc3cc(O)cc(O)c3c(=O)c2O)ccc1O [Isorhamnetin] | – | – | – | – | – | – | – | – | – | Concentration of newly formed metabolite [10]: 1610 ± 10 nM; Concentration of newly formed metabolite [11]: 3460 ± 80 nM; Concentration of newly formed metabolite [12]: 10 ± 0 nM; Concentration of newly formed metabolite [13]: 790 ± 30 nM; Concentration of newly formed metabolite [14]: 3760 ± 110 nM; Concentration of newly formed metabolite [15]: 10 ± 0 nM; Concentration of newly formed metabolite [16]: 1030 ± 40 nM
15 | O=c1c(O[C@@H]2O[C@H](CO)[C@@H](O)[C@H](O)[C@H]2O)c(-c2ccc(O)c(O)c2)oc2cc(O)cc(O)c12 [Quercetin-3-O-glucoside] | – | – | – | – | – | – | – | – | – | Concentration of newly formed metabolite (SW480, 24 h, substrate Quercetin-3-O-glucoside-4′-O-glucoside 50 μmol/L): 3350 ± 10 nM; Concentration of newly formed metabolite [12]: 8940 ± 30 nM; Concentration of newly formed metabolite [15]: 9340 ± 50 nM
